The text below walks through data of patent US20250236627A1, “CERTAIN OCTAHYDROFURO[3,4- B]PYRAZINES AS GLP-1 RECEPTOR MODULATORS” (ASTRAZENECA AB, priority 2021, published 2025).

The term EC50 denotes the concentration needed to bring the measured effect to its halfway point. Read a high EC50 as weaker potency. A word on the IC50: it is the concentration that gives 50% inhibition.

One assay concerns the target T1, human GLP-1R receptor (Homo sapiens, UniProt P43220, L260F).
T1 construct: expressed in transfected cells; host or cells: CHO-K1 (ATCC CCL-61)
Nature of the assay: CHOK1 GLP-1R cAMP Assay. Particulars: CHO-K1 cell line stably expressing human GLP-1R; HTRF cAMP detection. The format is cell-based. Put shortly:
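CHO-K1 cells, 800/well, stimulated 20 min at room temperature with compound in HEPES pH 7.4/HBSS/0.1% BSA plus IBMX (1 mM in the added buffer). cAMP measured by HTRF competitive immunoassay after ≥1 h, converted to pM via standard curve. EC50 from 4-parameter logistic fit; % effect relative to saturating GLP1(7-36)NH2.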
For orientation: Time-resolved FRET reads energy transfer from a long-lived donor to a nearby acceptor.

The target in assay [1] is T2, human phosphodiesterase-3A (Homo sapiens, UniProt Q14432).
T2 construct: host or cells: Sf9 cells
T2 sequence (Q14432 whole entry): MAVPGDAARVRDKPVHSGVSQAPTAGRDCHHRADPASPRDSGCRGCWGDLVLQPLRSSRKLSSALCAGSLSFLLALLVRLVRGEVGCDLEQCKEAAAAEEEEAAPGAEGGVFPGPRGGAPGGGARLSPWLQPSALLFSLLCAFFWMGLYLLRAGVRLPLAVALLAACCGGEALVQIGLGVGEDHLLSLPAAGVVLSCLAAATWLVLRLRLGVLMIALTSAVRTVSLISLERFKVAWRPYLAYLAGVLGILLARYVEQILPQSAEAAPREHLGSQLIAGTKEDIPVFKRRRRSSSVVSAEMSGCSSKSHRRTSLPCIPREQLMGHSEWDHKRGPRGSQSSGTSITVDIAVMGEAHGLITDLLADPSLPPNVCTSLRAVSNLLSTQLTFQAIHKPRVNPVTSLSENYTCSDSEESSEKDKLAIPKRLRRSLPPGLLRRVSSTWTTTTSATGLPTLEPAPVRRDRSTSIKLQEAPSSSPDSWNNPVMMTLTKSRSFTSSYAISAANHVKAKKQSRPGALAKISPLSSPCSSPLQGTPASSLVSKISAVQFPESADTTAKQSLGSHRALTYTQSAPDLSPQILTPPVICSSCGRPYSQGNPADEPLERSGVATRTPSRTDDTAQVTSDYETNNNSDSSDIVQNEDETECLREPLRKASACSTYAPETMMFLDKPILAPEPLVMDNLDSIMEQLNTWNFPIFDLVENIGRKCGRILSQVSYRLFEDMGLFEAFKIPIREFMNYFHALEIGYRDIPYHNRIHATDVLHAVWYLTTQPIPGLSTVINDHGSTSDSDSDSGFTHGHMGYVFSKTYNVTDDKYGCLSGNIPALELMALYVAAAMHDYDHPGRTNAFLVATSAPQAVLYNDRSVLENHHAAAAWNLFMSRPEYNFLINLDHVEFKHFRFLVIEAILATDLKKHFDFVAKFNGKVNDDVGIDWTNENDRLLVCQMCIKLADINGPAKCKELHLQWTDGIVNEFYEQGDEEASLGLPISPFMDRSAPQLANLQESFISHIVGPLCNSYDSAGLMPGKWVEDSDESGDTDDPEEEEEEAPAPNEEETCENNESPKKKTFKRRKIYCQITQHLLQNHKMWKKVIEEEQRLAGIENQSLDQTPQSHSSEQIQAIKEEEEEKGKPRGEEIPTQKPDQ
The experiment in a line: PDE3 Assay. The format is biochemical. The settings on record: human recombinant enzyme expressed in Sf9 cells; formation of 5′AMP from cAMP. As for the experimental part: Evaluation of the effects of compounds on the activity of the human phosphodiesterase-3A is quantified by measuring the formation of 5′AMP from cAMP using a human recombinant enzyme expressed in Sf9 cells.
The test compound, reference compound or water (control) are added to a buffer containing 40 mM Tris/HCl (pH 7.4) and 8 mM MgCl2, 450 nM cAMP and 0.25 μCi [^3H]cAMP.
Thereafter, the reaction is initiated by addition of the enzyme (about 1 U) and the mixture is incubated for 20 min at 22° C.
For basal control measurements, the enzyme is omitted from the reaction mixture.
Following incubation SPA beads are added. After 30 min at 22° C. under shaking, the amount of [^3H]5′AMP is quantified with a scintillation counter (Topcount, Packard).
The results are expressed as a percent inhibition of the control enzyme activity. The standard inhibitory reference compound is milrinone (CAS number 78415-72-2), which is tested in each experiment at several concentrations to obtain an inhibition curve from which its IC50 value is calculated.

Assay [2] has as its target T3, endogenous human glucagon-like peptide 1 receptor (GLP-1R) (Homo sapiens, UniProt P43220).
T3 construct: endogenous human glucagon-like peptide 1 receptor (GLP-1R) in a pancreatic insulinoma cell line; host or cells: EndoC-βH1 human pancreatic β cell line
Nature of the assay: EndoC cAMP Accumulation Assay. The format is cell-based. The settings on record: EndoC-βH1 human pancreatic β cell line; HTRF cAMP assay. Put shortly:
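Thawed EndoC-βH1 cells (3000 per well) were stimulated for 30 min at room temperature in HBSS/25 mM HEPES pH 7.4, 0.1% BSA and 0.5 mM IBMX. cAMP was measured by HTRF competitive immunoassay after 1 h. Responses were fitted by 4-parameter logistic as % activation relative to maximal GIP (82.5 nM), with basal cAMP as zero.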

T1 sequence (P43220 24-463 L260F): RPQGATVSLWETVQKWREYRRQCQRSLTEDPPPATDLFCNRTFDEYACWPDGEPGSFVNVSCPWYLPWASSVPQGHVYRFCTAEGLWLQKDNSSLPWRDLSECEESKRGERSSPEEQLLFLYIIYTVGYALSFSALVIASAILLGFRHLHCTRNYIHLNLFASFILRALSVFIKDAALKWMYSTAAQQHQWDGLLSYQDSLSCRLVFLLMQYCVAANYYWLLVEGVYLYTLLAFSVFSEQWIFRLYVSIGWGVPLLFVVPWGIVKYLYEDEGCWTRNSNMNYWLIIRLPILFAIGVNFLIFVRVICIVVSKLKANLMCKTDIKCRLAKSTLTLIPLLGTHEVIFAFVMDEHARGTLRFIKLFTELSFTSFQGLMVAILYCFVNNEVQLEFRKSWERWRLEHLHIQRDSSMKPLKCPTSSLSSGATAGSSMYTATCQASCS
T3 sequence (P43220 24-463): as the sequence (P43220 24-463 L260F) above, with F237L counted along it

On to `C[C@]1(c2ccc(Cl)cn2)Oc2cccc(N3CCN(Cc4nc5ccc(C(=O)O)cc5n4CC4(CC#N)CC4)[C@H]4COC[C@H]43)c2O1` (single isomer, unassigned) [Example 25], for which the values for the EC50 (at human GLP-1R receptor; in assay [2]) were 5.1 nM and 8 nM, respectively. The IC50 in assay [1] is above 100000 nM.

`COc1cc(C(=O)O)cc2c1nc(CN1CCN(c3cccc4c3O[C@@](C)(c3ccc(Cl)cn3)O4)[C@@H]3COC[C@@H]31)n2C[C@@H]1CCO1` (relative stereo) [Example 1b, 2-((4aR*,7aS*)-4-((R*)-2-(5-Chloropyridin-2-yl)-2-methylbenzo[d][1,3]dioxol-4-yl)hexahydrofuro[3,4-b]pyrazin-1(2H)-yl)methyl)-4-methoxy-1-(((S)-oxetan-2-yl)methyl)-1H-benzo[d]imidazole-6-carboxylic acid]: the EC50 on human GLP-1R receptor was determined as 1.8 nM; in assay [2], 3.1 nM. Moreover, in assay [1], the IC50 was above 100000 nM.

As to `C[C@]1(c2ccc(Cl)cc2F)Oc2cccc(N3CCN(Cc4nc5ccc(C(=O)O)cc5n4C[C@@H]4CCO4)[C@H]4COC[C@H]43)c2O1` (single isomer, unassigned) [Example 6a, 2-(((4aR*,7aS*)-4-((R*)-2-(4-Chloro-2-fluorophenyl)-2-methylbenzo[d][1,3]dioxol-4-yl)hexahydrofuro[3,4-b]pyrazin-1(2H)-yl)methyl)-1-(((S)-oxetan-2-yl)methyl)-1H-benzo[d]imidazole-6-carboxylic acid], the figures for the EC50 (on human GLP-1R receptor; in assay [2]) were 1.5 nM and 0.92 nM, respectively. In addition, the IC50 in assay [1] is above 100000 nM.

As to `C[C@]1(c2ccc(Cl)cn2)Oc2cccc(N3CCN(Cc4nc5c(F)cc(C(=O)O)cc5n4C[C@@H]4CCO4)[C@H]4COC[C@H]43)c2O1` (single isomer, unassigned) [Example 9a, 2-(((4aR*,7aS*)-4-((R*)-2-(5-Chloropyridin-2-yl)-2-methylbenzo[d][1,3]dioxol-4-yl)hexahydrofuro[3,4-b]pyrazin-1(2H)-yl)methyl)-4-fluoro-1-(((S)-oxetan-2-yl)methyl)-1H-benzo[d]imidazole-6-carboxylic acid], the EC50 amounted to 1.5 nM on human GLP-1R receptor and 3.9 nM in assay [2]. For the same compound, the IC50 in assay [1] is above 100000 nM.

Take `COc1cc(C(=O)O)cc2c1nc(CN1CCN(c3cccc4c3O[C@@](C)(c3ccc(Cl)cn3)O4)[C@@H]3COC[C@@H]31)n2C[C@@H]1CCCO1` (relative stereo) [Example 2a, 2-((4aR*,7aS*)-4-((R*)-2-(5-Chloropyridin-2-yl)-2-methylbenzo[d][1,3]dioxol-4-yl)hexahydrofuro[3,4-b]pyrazin-1(2H)-yl)methyl)-4-methoxy-1-(((S)-tetrahydrofuran-2-yl)methyl)-1H-benzo[d]imidazole-6-carboxylic acid]: the EC50 came to 3.8 nM at human GLP-1R receptor and 3.1 nM in assay [2]. Besides, the IC50 in assay [1] was above 100000 nM.

`C[C@]1(c2ccc(Cl)cn2)Oc2cccc(N3CCN(Cc4nc5c(F)cc(C(=O)O)cc5n4CC4(CC#N)CC4)[C@H]4COC[C@H]43)c2O1` (single isomer, unassigned) [Example 21]: the EC50 (on human GLP-1R receptor; in assay [2]) was 3 nM in each case. For the same compound, in assay [1], the IC50 was above 100000 nM.

Consider `C[C@]1(c2ccc(Cl)cn2)Oc2cccc(N3CCN(Cc4nc5c(F)cc(C(=O)O)cc5n4CC4(C#N)CC4)[C@H]4COC[C@H]43)c2O1` (single isomer, unassigned) [Example 22a], for which the EC50 at human GLP-1R receptor worked out at 2.7 nM; in assay [2], 3.2 nM. The IC50 in assay [1] is above 100000 nM.

For `C[C@]1(c2ccc(Cl)cn2)Oc2cccc(N3CCN(Cc4nc5ccc(C(=O)O)cc5n4C[C@@H]4CCO4)[C@H]4COC[C@H]43)c2O1` (single isomer, unassigned) [Example 5b, 2-(((4aR*,7aS*)-4-((R*)-2-(5-Chloropyridin-2-yl)-2-methylbenzo[d][1,3]dioxol-4-yl)hexahydrofuro[3,4-b]pyrazin-1(2H)-yl)methyl)-1-(((S)-oxetan-2-yl)methyl)-1H-benzo[d]imidazole-6-carboxylic acid], the EC50 at human GLP-1R receptor turned out to be 2.2 nM; in assay [2], 9.5 nM. Moreover, the IC50 in assay [1] is above 100000 nM.
